# Measurements as given in paper PMC11685595, “Measuring plant cysteine oxidase interactions with substrates using intrinsic tryptophan fluorescence” (Scientific Reports, 2024).
# Peptide text beside a SMILES is read from it.
# What was measured:
# AtPCO4.Ni(II) = molecular target: T1, AtPCO4.Ni(II) (Arabidopsis thaliana, UniProt Q9SJI9); test: Plate-based intrinsic Trp fluorescence quenching binding assay, AtPCO4.Ni(II); conditions: 8 µM AtPCO4.Ni(II) (enzyme:metal 1:2), 0-750 µM peptide, anaerobic, 10 min, 25 °C, 50 mM Tris pH 7.5, 0.4 M NaCl, λex/λem 280/350 nm; ± Std. Error of fit, n = 3
# T1 construct: His6 (cleaved yes); made in house
# Method: (§1) Following affinity purification, the His6-tag was cleaved using TEV protease and the cleaved tag was removed using a HisTrap HP column (GE Healthcare). To remove the active site metal which co-purifies with PCO enzymes, concentrated protein fractions were dialysed into 50 mM Tris (pH 7.5), 0.4 M NaCl, 100 mM EDTA and 10 mM 1,10-Phenanthroline followed by dialysis into 50 mM Tris (pH 7.5), 0.4 M NaCl and 0.1% (w/v) Chelex® 100 resin to remove excess EDTA and 1,10-Phenanthroline. Dialysed protein was then purified with a HiLoad 26/600 Superdex 75 prep grade size exclusion column (GE Healthcare) equilibrated with 50 mM Tris (pH 7.5) and 0.4 M NaCl (herein termed assay buffer). Protein purity was assessed with SDS-PAGE. To check that Fe(II) was removed, activity assays of metal-removed protein were conducted as described previously.
# (§2) Metal-removed AtPCO4/5 was incubated with Ni(II) (NiCl2.6H2O, Alfa Aesar) at enzyme:metal, 1:2 ratio and diluted to the desired volume in assay buffer to a final enzyme concentration of 8 µM, termed the enzyme master mix.
# AtPCO5.Ni(II) = molecular target: T2, AtPCO5.Ni(II) (Arabidopsis thaliana, UniProt Q9LXT4); test: Plate-based intrinsic Trp fluorescence quenching binding assay, AtPCO5.Ni(II); conditions: 8 µM AtPCO5.Ni(II) (enzyme:metal 1:2), 0-750 µM peptide, anaerobic, 10 min, 25 °C, 50 mM Tris pH 7.5, 0.4 M NaCl, λex/λem 280/350 nm; ± Std. Error of fit, n = 3
# T2 construct: His6 (cleaved yes); made in house
# Method: as §1, §2
# T2 sequence (Q9LXT4 whole entry): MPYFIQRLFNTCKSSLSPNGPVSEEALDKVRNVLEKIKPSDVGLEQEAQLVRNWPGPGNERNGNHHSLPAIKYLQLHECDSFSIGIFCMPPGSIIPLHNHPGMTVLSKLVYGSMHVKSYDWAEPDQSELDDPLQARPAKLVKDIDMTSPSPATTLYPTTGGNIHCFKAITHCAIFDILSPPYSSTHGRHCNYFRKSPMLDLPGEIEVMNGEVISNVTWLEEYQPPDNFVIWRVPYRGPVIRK
structure (smiles),measurement,setting,value
CC[C@H](C)[C@H](NC(=O)[C@H](C)NC(=O)CNC(=O)CNC(=O)[C@@H](N)CS)C(=O)N[C@@H](CC(C)C)C(=O)N[C@@H](CO)C(=O)N[C@@H](CC(=O)O)C(=O)N[C@H](C(=O)N[C@H](C(=O)N[C@@H](C)C(=O)N1CCC[C@H]1C(=O)N[C@@H](CO)C(=O)N[C@@H](C)C(=O)O)[C@@H](C)CC)[C@@H](C)CC [HRE1_2-15] (H-CGGAILSDIIAPSA-OH),Kd,AtPCO4.Ni(II),298 ± 37.7 µM
same,Kd,AtPCO5.Ni(II),223 ± 10.3 µM
